According to patent US5061794A, “Cephalosporin derivatives, and antibacterial agents” (priority 1986, dated 1991):
Values after ≈ are worked out from the molar mass of the structure shown. Read-outs that look alike come from different tables or passages of the source.

Experiments:
A. calcoaceticus No. 4 = experiment: in vitro antibacterial activity, agar plate dilution method (MIC); format: cell-based, Acinetobacter calcoaceticus; details: Acinetobacter calcoaceticus, NO.4, 16 h, 10^6 CFU/ml
Summary of the method: (§1)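 MIC values (μg/ml) come from Mueller Hinton agar dilution plates inoculated with overnight-grown bacteria at 10^6 CFU/ml and kept at 37° C. for 16 hours.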

E. cloacae 963 = experiment: as above; format: cell-based; details: Enterobacter cloacae, 963, 16 h, read-out: Minimum Inhibitory Concentration (MIC), E. cloacae 963; 10^6 CFU/ml
Summary of the method: as §1

K. pneumoniae No. 42 = experiment: as above; format: cell-based; details: Klebsiella pneumoniae, NO.42, 16 h, read-out: Minimum Inhibitory Concentration (MIC), *K. pneumoniae No. 42, lactamase-producing strain; 10^6 CFU/ml
Summary of the method: as §1

M. morganii GN5407 = experiment: as above; format: cell-based; details: Morganella morganii, GN5407, 16 h, read-out: Minimum Inhibitory Concentration (MIC), *M. morganii GN5407, lactamase-producing strain; 10^6 CFU/ml
Summary of the method: as §1

P. vulgaris HX-19 = experiment: as above; format: cell-based; details: Proteus vulgaris, HX19, 16 h, P. vulgaris HX-19; 10^6 CFU/ml; read-out: Minimum Inhibitory Concentration (MIC)
Summary of the method: as §1

E. cloacae Nek 39 = experiment: as above; format: cell-based; details: Enterobacter cloacae, NEK39, 16 h, 10^6 CFU/ml
Summary of the method: as §1

S. aureus 209P NIHJ-JC1 = experiment: as above; format: cell-based; details: Staphylococcus aureus, 16 h
Summary of the method: as §1

K. pneumoniae PCI-602 = experiment: as above; format: cell-based; details: Klebsiella pneumoniae, PCI602, 16 h, 10^6 CFU/ml
Summary of the method: as §1

S. marcescens IAM 1184 = experiment: as above; format: cell-based; details: Serratia marcescens, IAM1184, 16 h, read-out: Minimum Inhibitory Concentration (MIC)
Summary of the method: as §1

S. marcescens No. 16-2 = experiment: as above; format: cell-based; details: Serratia marcescens, NO.162, 16 h; *S. marcescens No. 16-2, lactamase-producing strain; 10^6 CFU/ml; read-out: Minimum Inhibitory Concentration (MIC)
Summary of the method: as §1

E. coli NIHJ JC2 = experiment: as above; format: cell-based; details: Escherichia coli, NIHJJC2, 16 h, read-out: Minimum Inhibitory Concentration (MIC), E. coli NIHJ JC2, 10^6 CFU/ml, 37° C.
Summary of the method: as §1

P. vulgaris No. 33 = experiment: as above; format: cell-based; details: Proteus vulgaris, NO.33, 16 h, read-out: Minimum Inhibitory Concentration (MIC), *P. vulgaris No. 33, lactamase-producing strain; 10^6 CFU/ml
Summary of the method: as §1

K. oxytoca GN10650 = experiment: as above; format: cell-based; details: Klebsiella oxytoca, 10^6 CFU/ml
Summary of the method: as §1

E. coli GN5482 = experiment: as above; format: cell-based; details: Escherichia coli
Summary of the method: as §1

Ps. aeruginosa IF03445 = experiment: as above; format: cell-based, Pseudomonas aeruginosa; details: Pseudomonas aeruginosa, 10^6 CFU/ml
Summary of the method: as §1

Ps. aeruginosa AK 109 = experiment: as above; format: cell-based, Pseudomonas aeruginosa; details: Pseudomonas aeruginosa, AK109, 16 h
Summary of the method: as §1

Ps. aeruginosa AKR17 = experiment: as above; format: cell-based, Pseudomonas aeruginosa; details: Pseudomonas aeruginosa, read-out: Minimum Inhibitory Concentration (MIC)
Summary of the method: as §1

E. coli CSH(RE45) = experiment: microbe, parasite or virus in culture; format: cell-based; details: Escherichia coli, 16 h, read-out: Minimum Inhibitory Concentration (MIC), *E. coli CSH(RE45), lactamase-producing strain; 10^6 CFU/ml
Summary of the method: as §1

E. coli CSH2 (RK1) = experiment: microbe, parasite or virus in culture; format: cell-based; details: Escherichia coli, 16 h, read-out: Minimum Inhibitory Concentration (MIC), *E. coli CSH2 (RK1), lactamase-producing strain; 10^6 CFU/ml
Summary of the method: as §1

Ps. cepacia 23 = experiment: in vitro antibacterial activity, agar plate dilution method (MIC); format: cell-based, Pseudomonas cepacia; details: read-out: Minimum Inhibitory Concentration (MIC)
Summary of the method: as §1

[1] = A. calcoaceticus No. 4, read-out: Minimum Inhibitory Concentration (MIC)
[2] = read-out: Minimum Inhibitory Concentration (MIC), *E. cloacae Nek 39, lactamase-producing strain
[3] = S. aureus 209P NIHJ-JC1, 10^6 CFU/ml, 37° C., 16 hours, read-out: Minimum Inhibitory Concentration (MIC)
[4] = K. pneumoniae PCI-602, read-out: Minimum Inhibitory Concentration (MIC)
[5] = S. marcescens IAM 1184, 10^6 CFU/ml
[6] = GN10650, 16 h, read-out: Minimum Inhibitory Concentration (MIC), *K. oxytoca GN10650, lactamase-producing strain
[7] = IF03445, 16 h, read-out: Minimum Inhibitory Concentration (MIC), Ps. aeruginosa IF03445
[8] = read-out: Minimum Inhibitory Concentration (MIC)
[9] = 16 h, Ps. aeruginosa AKR17, 10^6 CFU/ml
[10] = 16 h, *K. oxytoca GN10650, lactamase-producing strain, read-out: Minimum Inhibitory Concentration (MIC)
[11] = GN5482, 16 h, read-out: Minimum Inhibitory Concentration (MIC)
[12] = 16 h, Ps. aeruginosa IF03445, read-out: Minimum Inhibitory Concentration (MIC)
[13] = Ps. aeruginosa AK 109, 10^6 CFU/ml, read-out: Minimum Inhibitory Concentration (MIC)
[14] = read-out: Minimum Inhibitory Concentration (MIC), K. pneumoniae PCI-602
[15] = GN5482, 16 h, read-out: Minimum Inhibitory Concentration (MIC), *E. coli GN5482, lactamase-producing strain, 10^6 CFU/ml

SMILES	MIC (A. calcoaceticus No. 4; [1]) [µg/mL]	MIC (E. cloacae 963) [µg/mL]	MIC (K. pneumoniae No. 42) [µg/mL]	MIC (M. morganii GN5407) [µg/mL]	MIC (P. vulgaris HX-19) [µg/mL]	MIC (E. cloacae Nek 39; [2]) [µg/mL]	MIC (S. aureus 209P NIHJ-JC1; [3]) [µg/mL]	MIC (K. pneumoniae PCI-602; [4]) [µg/mL]	MIC (S. marcescens IAM 1184; [5]) [µg/mL]	MIC (S. marcescens No. 16-2) [µg/mL]	MIC (E. coli NIHJ JC2) [µg/mL]	MIC (P. vulgaris No. 33) [µg/mL]	MIC (K. oxytoca GN10650; [6]) [µg/mL]	MIC (Ps. aeruginosa AKR17; [9]) [µg/mL]	MIC (E. coli CSH(RE45)) [µg/mL]	MIC (E. coli CSH2 (RK1)) [µg/mL]	MIC (Ps. cepacia 23; Burkholderia cepacia, 23, 16 h) [µg/mL]	MIC (S. marcescens IAM 1184) [µg/mL]	MIC (Ps. aeruginosa IF03445; [12]) [µg/mL]	MIC (Ps. aeruginosa AK 109; [13]) [µg/mL]	other results
CC(C)(O/N=C(\C(=O)N[C@@H]1C(=O)N2C(C(=O)O)=C(CSc3nc(C(=O)O)c(-c4ccccc4)s3)CS[C@H]12)c1csc(N)n1)C(=O)O [compound 14, reference compound]	50 (≈ 70.9 µM)	1.56 (≈ 2.21 µM)	1.56 (≈ 2.21 µM)	0.2 (≈ 0.284 µM)	< 0.006	12.5 (≈ 17.7 µM)	50 (≈ 70.9 µM)	0.2 (≈ 0.284 µM)	0.1 (≈ 0.142 µM)	25 (≈ 35.5 µM)	1.56 (≈ 2.21 µM)	0.025 (≈ 0.0355 µM)	1.56 (≈ 2.21 µM)	> 100	1.56 (≈ 2.21 µM)	1.56 (≈ 2.21 µM)	0.78 (≈ 1.11 µM)	–	–	–	MIC (E. coli GN5482; 16 h, *E. coli GN5482, lactamase-producing strain, 10^6 CFU/ml, read-out: Minimum Inhibitory Concentration (MIC)): 3.12 µg/mL (≈ 4.43 µM); MIC (Ps. aeruginosa IF03445; [7]): 12.5 µg/mL (≈ 17.7 µM); MIC (Ps. aeruginosa AK 109; [8]): 12.5 µg/mL (≈ 17.7 µM)
CO/N=C(\C(=O)N[C@@H]1C(=O)N2C(C(=O)O)=C(CSc3nc(-c4ccccc4)c(CC(=O)O)s3)CS[C@H]12)c1csc(N)n1 [compound 15, disodium 7β-[2-(2-aminothiazol-4-yl)-2-methoxyiminoacetamido]-3-(5-carboxylatemethyl-4-phenylthiazol-2-yl)thiomethyl-3-cephem-4-carboxylate, reference compound]	100	0.39	0.78	0.39	< 0.006	12.5	–	0.2	–	50	0.78	0.2	–	> 100	0.78	0.39	6.25	0.78	100	100	MIC (S. aureus 209P NIHJ-JC1; [8]): 3.12 µg/mL; MIC (K. oxytoca GN10650; [10]): 25 µg/mL; MIC (E. coli GN5482; [11]): 3.12 µg/mL
CC(C)(O/N=C(\C(=O)N[C@@H]1C(=O)N2C(C(=O)O)=C(CSc3nc(-c4ccccc4)c(CC(=O)O)s3)CS[C@H]12)c1csc(N)n1)C(=O)O [compound 16, trisodium 7β-[2-(2-aminothiazol-4-yl)-2-(1-carboxylate-1-methylethoxyimino)acetamido]-3-(5-carboxylatemethyl-4-phenylthiazol-2-yl)thio-methyl-3-cephem-4-carboxylate, reference compound]	> 100	6.25	3.12	1.56	< 0.006	–	50	–	–	50	6.25	0.2	3.12	> 100	3.12	6.25	6.25	1.56	50	50	MIC (E. cloacae Nek 39; *E. cloacae Nek 39, lactamase-producing strain, read-out: Minimum Inhibitory Concentration (MIC)): 25 µg/mL; MIC (K. pneumoniae PCI-602; [14]): 1.56 µg/mL; MIC (E. coli GN5482; [15]): 6.25 µg/mL
Nc1nc(/C(=N/OC(C(=O)O)c2ccc(O)c(O)c2)C(=O)N[C@@H]2C(=O)N3C(C(=O)O)=C(CSc4nnc(-c5ccc(O)c(O)c5)o4)CS[C@H]23)cs1 (stereo partly shown) [compound 16]	–	0.39 (≈ 0.515 µM)	0.2 (≈ 0.264 µM)	0.2 (≈ 0.264 µM)	0.05 (≈ 0.066 µM)	0.78 (≈ 1.03 µM)	–	< 0.006	0.1 (≈ 0.132 µM)	25 (≈ 33 µM)	0.2 (≈ 0.264 µM)	0.78 (≈ 1.03 µM)	0.1 (≈ 0.132 µM)	–	3.12 (≈ 4.12 µM)	0.025 (≈ 0.033 µM)	–	–	–	–	MIC (A. calcoaceticus No. 4; read-out: Minimum Inhibitory Concentration (MIC), A. calcoaceticus No. 4): 0.1 µg/mL (≈ 0.132 µM); MIC (S. aureus 209P NIHJ-JC1; read-out: Minimum Inhibitory Concentration (MIC), S. aureus 209P NIHJ-JC1, 10^6 CFU/ml, 37° C., 16 hours): 1.56 µg/mL (≈ 2.06 µM); MIC (E. coli GN5482; [15]): 0.78 µg/mL (≈ 1.03 µM); MIC (Ps. aeruginosa IF03445; [7]): 6.25 µg/mL (≈ 8.25 µM); MIC (Ps. aeruginosa AK 109; read-out: Minimum Inhibitory Concentration (MIC), Ps. aeruginosa AK 109, 10^6 CFU/ml): 0.78 µg/mL (≈ 1.03 µM); MIC (Ps. aeruginosa AKR17; AKR17, 16 h): 3.12 µg/mL (≈ 4.12 µM); MIC (Ps. cepacia 23; Burkholderia cepacia, 16 h, Ps. cepacia 23, 10^6 CFU/ml): < 0.006 µg/mL
CO/N=C(\C(=O)N[C@@H]1C(=O)N2C(C(=O)O)=C(CSc3nc(-c4ccc(O)cc4)c(CC(=O)O)s3)CS[C@H]12)c1csc(N)n1 [compound 17, disodium 7β-[2-(2-aminothiazol-4-yl)-2-methoxyminoacetamido]-3-[5-carboxylatemethyl-4-(4-hydroxyphenyl)thiazol-2-yl]thiomethyl-3-cephem-4-carboxylate, reference compound]	100	0.39	0.78	0.39	< 0.006	12.5	–	–	–	100	0.39	0.1	–	> 100	0.78	0.39	6.25	0.39	50	50	MIC (S. aureus 209P NIHJ-JC1; [8]): 3.12 µg/mL; MIC (K. pneumoniae PCI-602; [14]): 0.1 µg/mL; MIC (K. oxytoca GN10650; [10]): 25 µg/mL; MIC (E. coli GN5482; [11]): 3.12 µg/mL
